Results: US20200121645A1, “COMPOSITION FOR PREVENTING OR TREATING EGFR-MUTANT NON-SMALL CELL LUNG CANCER” (THE ASAN FOUNDATION, priority 2018, published 2020)

Columns and labels:
[1] = system: PC9 cells; test: TCA metabolite pools by LC-MS/MS; assay type: cell-based; settings: 2DG 10 mM or BPTES 10 μM
Method: Cells were grown to ˜60% confluence in growth media (RPMI1640, 10% FBS) on 10-cm dishes. After 24 hours, cells were harvested using 1.4 mL of cold methanol/H2O (80/20, v/v) after sequential PBS and H2O washes, and lysed; 100 μL of 5 μM internal standard was added. Metabolites were liquid-liquid extracted from the aqueous phase after adding chloroform. The aqueous phase was dried via vacuum centrifugation, and the sample was reconstituted with 50 μL of 50% methanol prior to LC/MS-MS analysis. The LC/MS-MS system was equipped with an Agilent 1290 HPLC (Agilent Technologies, Santa Clara, Calif., USA), Qtrap 5500 (ABSciex, Concord, Ontario, Canada), and reverse phase column (Synergi fusion RP 50×2 mm). A 3 μL volume was injected into the LC/MS-MS system and ionized with a turbo spray ionization source. Multiple reaction monitoring was used in negative ion mode, and the extracted ion chromatogram (EIC), corresponding to the specific transition for each metabolite was used for quantitation. The area under the curve of each EIC was normalized to that of the internal standard EIC. The peak area ratio of each metabolite to the internal standard was normalized using protein amount in a sample, and then was used for relative comparison.

[2] = system: EGFR in EGFR-mutant NSCLCs; test: Western blot of EGFR levels, EGFR signaling and PARP/caspase-3 cleavage; assay type: cell-based; settings: for EGFR signaling (AKT and ERK phosphorylation) / EGFR levels / PARP and caspase-3 cleavage (apoptosis markers): EGFR-mutant NSCLCs, immunoblot
Method: (§1) Cells were lysed in RIPA lysis buffer containing protease inhibitor cocktail (Thermo Scientific, Waltham, Mass., USA); lysate concentrations were assayed using a BCA assay (Thermo Scientific). Equal amounts of lysates were mixed with Laemmli loading dye and boiled for 10 minutes. Lysates were subjected to SDS-PAGE, and separated proteins were transferred to PVDF membranes (EMD Millipore, Billerica, Mass., USA). Membranes were blocked in Tris-buffered saline (TBS) containing 5% nonfat dry milk and 0.1% Tween 20 (TBS-T) prior to overnight incubation with primary antibody at 4° C. After washing with TBS-T, blots were exposed to appropriate horseradish peroxidase-conjugated secondary antibodies for 1 hour. Proteins-antibody complexes were visualized on Kodak X-ray film using an enhanced chemiluminescence (ECL) detection system (Thermo Scientific, Waltham, Mass., USA).

[3] = system: EGFR-mutant NSCLCs; test: ROS quantification (DCFDA and MitoSox Red); assay type: cell-based; settings: 2DG 10 mM or rotenone 5 μM, 24 h
Method: To determine cytoplasmic ROS, cells were incubated with 2′,7′-dichlorodihydrofluorescein diacetate (DCFDA, 5 μM; Invitrogen, Carlsbad, Calif., USA) for 30 minutes. Excess DCFDA was removed by washing cells twice with PBS at room temperature; labeled cells were trypsinized, rinsed, and resuspended in PBS. The oxidation of DCFDA to the highly fluorescent 2′,7′-dichloro-fluorescein (DCF), which is proportionate to ROS generation, was analyzed by flow cytometry. To analyze mitochondrial ROS, the cells were then incubated with 5 μM MitoSOX™ reagent (Thermo Scientific, Waltham, Mass., USA) for 10 minutes at 37° C. and trypsinized, washed with PBS, and then resuspended in 200 μL of PBS. Stained cells were then quantified and analyzed on a flow cytometer (BeckmanCoulter, Brea, Calif., USA). Excitation wavelength was 510 nm, and emission wavelength was 580 nm.

[4] = system: EGFR-mutant NSCLCs (PC9 and H1975); test: Apoptotic cell death by Annexin V/PI staining and flow cytometry; assay type: cell-based; settings: for apoptotic cell death: EGFR-mutant NSCLCs, 24 h treatment; for rescue from glucose deprivation-induced apoptosis: glucose-free medium, 24 h, SP600125 15 μM
Method: (§2) Apoptotic cell death was detected using an Annexin-V/FITC assay. Cells were harvested by trypsinization, washed with PBS, and resuspended in Annexin-V binding buffer (10 mM HEPES, pH 7.4, 140 mM NaCl, 2.5 mM CaCl2) containing Annexin-V FITC and propidium iodide. Stained cells were quantified and analyzed on a flow cytometer (BeckmanCoulter, Brea, Calif., USA).

[5] = system: JNK in EGFR-mutant NSCLCs; test: Western blot for JNK and P-JNK; assay type: cell-based; settings: for JNK activation (P-JNK): EGFR-mutant NSCLCs, immunoblot
Method: as §1

[6] = system: PC9 cells; test: Quantitation of intracellular ATP; assay type: cell-based; settings: MPYR or AKG 7 mM, 24 h
Method: Intracellular ATP concentrations were measured using an ATP Colorimetric/Fluorometric Assay Kit (Biovision Incorporated, Milpitas, Calif., USA) according to the manufacturer's instructions. Briefly, cells were lysed in […] of ATP assay buffer; 50 μL of supernatants were collected and added to a 96-well plate. To each well, 50 μL of ATP assay buffer containing ATP probe, ATP converter, and developer were added. Absorbance was measured at 570 nm.

[7] = system: EGFR; test: EGFR transcriptional level; assay type: cell-based
Method: Total RNA was extracted using TRIzol (Invitrogen, Carlsbad, Calif., USA). cDNA was synthesized from 2 μg of total RNA, using oligo-dT and MMLV HP reverse transcriptase (Epicentre, Madison, Wis., USA) according to the manufacturer's instruction. qRT-PCR was performed on an AriaMax Real-Time PCR instrument (Agilent Technologies, Santa Clara, Calif., USA) using the SYBR detection protocol. cDNA was calculated by the comparative Ct method, with 18S ribosomal RNA as a control. PCR reactions were performed in triplicates.

[8] = system: PC9 and H1975 tumor cell xenografts; test: Xenograft studies, tumor volume; assay type: in vivo, SCID mice; settings: 2DG 500 mg/kg, intraperitoneal, 5 days a week for 2 weeks; compared with EGFR-WT (A549) xenografts
Method: Female severe combined immunodeficiency (SCID) mice were purchased from Charles River Laboratories. All experimental procedures were approved by the Institutional Animal Care and Use Committee of Asan Institute for Life Sciences (protocol 2015-14-241). For each animal, 2×10^6 cells mixed with Matrigel (BD Biosciences) were injected into the flank. Five mice per group were treated when the tumor volumes reached 50 to 100 mm^3 with anisomycin (5 mg/kg, intratumoral, 5 days a week) or 2-deoxy-D-glucose (2DG) 500 mg/kg, intraperitoneal, 5 days a week) for 2 weeks. The length (L) and width (W) of each tumor were measured using calipers, and the tumor volume (TV) was calculated as TV=(L×W^2)/2. To evaluate EGFR-related signaling in xenograft tumors, tumors were harvested after 3 days of drug treatment, lysed, and analyzed with Western blotting.

[9] = system: PC-9/GR and PC-9/ER cells; test: Western blot of JNK, EGFR signaling and apoptosis markers in EGFR-TKI-resistant cells; assay type: cell-based; settings: 24 h
Method: as §1

[10] = system: IGF1R and MET in EGFR-mutant NSCLCs; test: Western blot of other receptor tyrosine kinases; assay type: cell-based; settings: 2DG 10 mM, 24 h
Method: as §1

[11] = system: PC-9/GR and PC-9/ER cells; test: Apoptotic cell death by Annexin V/PI staining and flow cytometry in EGFR-TKI-resistant cells; assay type: cell-based; settings: PC-9/GR and PC-9/ER cells (T790M), 24 h
Method: as §2

[12] = system: EGFR-WT NSCLCs (A549 and H1299); test: Apoptotic cell death by Annexin V/PI staining and flow cytometry; assay type: cell-based; settings: 24 h treatment
Method: as §2

[13] = system: EGFR-mutant NSCLCs; test: Autophagy: LC3-II immunoblot and GFP-LC3 puncta; assay type: cell-based; settings: 2DG 10 mM or anisomycin 5 μM, 24 h
Method: as §1

[14] = system: pentose phosphate pathway; test: NADP+/NADPH ratios; assay type: cell-based; settings: data not shown

O=C(Cc1ccccc1)Nc1nnc(CCSCCc2nnc(NC(=O)Cc3ccccc3)s2)s1 [BPTES]
levels of TCA cycle intermediates [1]: no significant inhibitory effect | EGFR signaling (AKT and ERK phosphorylation) [2]: had no effect on EGFR signaling

C=C(C)[C@H]1Cc2c(ccc3c2O[C@@H]2COc4cc(OC)c(OC)cc4[C@@H]2C3=O)O1 [rotenone]
cytoplasmic and mitochondrial ROS levels [3]: significant increases | apoptotic cell death [4]: rotenone-mediated apoptosis | EGFR levels [2]: robustly decreased EGFR levels in both dose- and time-dependent manners | JNK activation (P-JNK) [5]: significantly induced JNK activation in both dose- and time-dependent manners

O=C(O)CCC(=O)C(=O)O [α-ketoglutarate]
recovery of ATP levels reduced by glucose deprivation [6]: significant recovery of ATP levels | rescue from glucose deprivation-induced apoptosis ([4]; MPYR or AKG 7 mM, NAC 4 mM): rescue EGFR-mutant NSCLCs from glucose deprivation-induced apoptosis

CCN(CC)CCCC(C)Nc1ccnc2cc(Cl)ccc12 (centres unmarked) [chloroquine]
PARP and caspase-3 cleavage upon glucose deprivation, 2DG, or anisomycin treatment ([2]; chloroquine 10 μM, 24 h): robustly inhibited | reduction in EGFR levels caused by glucose deprivation, 2DG, or anisomycin treatment ([2]; in the presence of chloroquine, 24 h): dramatically inhibited

O=CC[C@@H](O)[C@H](O)[C@H](O)CO [2DG, 2-deoxy-D-glucose]
EGFR transcriptional level [7]: no significant effect | levels of TCA cycle intermediates [1]: significantly decreased | cytoplasmic and mitochondrial ROS levels [3]: significant increases | tumor growth of xenografts [8]: robustly diminished the growth | JNK activation ([9]; 2DG 10 mM): markedly activated JNK | EGFR level, AKT and ERK phosphorylation, PARP and caspase-3 cleavage [9]: EGFR level reduction, AKT and ERK phosphorylation inhibition, and PARP and caspase-3 cleavage | IGF1R phosphorylation [10]: significantly decreased | MET phosphorylation [10]: marginally decreased | total form of IGF1R and MET [10]: did not change | apoptosis [11]: significant induction of apoptosis | apoptotic cell death [4]: promoted apoptosis | apoptotic cell death [12]: only in EGFR-mutant NSCLCs | LC3-II levels [13]: significant increase in LC3-II levels | number of GFP-LC3 puncta ([13]; PC9 cells expressing GFP-LC3): profoundly increased | EGFR levels [2]: robust reduction of EGFR levels | EGFR signaling (AKT and ERK phosphorylation) [2]: inhibition of EGFR signaling | PARP and caspase-3 cleavage (apoptosis markers) [2]: leading to apoptosis | EGFR levels upon ATG7 knockdown ([2]; cells expressing ATG7 shRNAs, 2DG 10 mM or anisomycin 5 μM, 24 h): did not reduce EGFR levels | NADP+/NADPH ratios [14]: no significant effect

OC[C@H]1O[C@H](O[C@H]2O[C@H](CO)[C@@H](O)[C@H](O)[C@H]2O)[C@H](O)[C@@H](O)[C@@H]1O [trehalose]
EGFR levels [2]: significantly induced EGFR degradation in a dose-dependent manner

OO [H2O2, hydrogen peroxide]
apoptotic cell death [4]: activated apoptosis in EGFR-mutant NSCLCs in a dose-dependent manner | EGFR levels [2]: markedly reduced the EGFR levels | EGFR signaling (AKT and ERK phosphorylation) [2]: inhibited the AKT and ERK phosphorylation | PARP and caspase-3 cleavage (apoptosis markers) [2]: cleaved the PARP and caspase-3 in a dose-dependent manner | JNK activation (P-JNK) [5]: activated JNK in a dose-dependent manner

CC(=O)N[C@@H](CS)C(=O)O [NAC, N-acetyl-L-cysteine]
rescue from 2DG treatment-induced apoptotic cell death ([4]; 2DG 10 mM, MPYR or AKG 7 mM, NAC 4 mM): significantly rescued cell death | rescue from anisomycin-induced cell death ([4]; anisomycin 24 h in absence or presence of NAC (FIG. 10a)): did not rescue | rescue from glucose deprivation-induced apoptosis ([4]; MPYR or AKG 7 mM, NAC 4 mM): significantly rescued cell death | rescue from rotenone-mediated apoptosis ([4]; rotenone 5 μM, methyl-pyruvate or NAC 4 mM): significantly rescued cell death | EGFR levels and AKT and ERK phosphorylation following glucose deprivation, 2DG, or rotenone treatment ([2]; NAC 4 mM, 24 h): significant recovery | PARP and caspase-3 cleavage upon glucose deprivation, 2DG, or rotenone treatment ([2]; NAC 4 mM, 24 h): significantly inhibited | recovery of anisomycin-decreased EGFR signaling or EGFR levels ([2]; anisomycin with NAC (FIG. 10b)): could not recover | JNK activation induced by glucose deprivation, 2DG, or rotenone treatment ([5]; NAC 4 mM, 24 h): completely inhibited | inhibition of anisomycin-induced JNK activation ([5]; anisomycin with NAC (FIG. 10c)): could not
